Test results taken from patent publication US10544130B2, “Metallo-beta-lactamase inhibitors” (priority 2015, dated 2020).
≈ marks a conversion by molar mass, not a printed value. Like-named read-outs stand apart in the source and are kept apart here.

What was measured:
IMP-1 = IMP-1 (Serratia marcescens, UniProt P52699); assay type: biochemical; conditions: CCF2-FA substrate, 2 hours at 25° C.
Protocol: (§1) Enzyme Activity: Determination of IC50
(§2) The Class B enzyme activities were measured in the presence of the test inhibitor in a fluorescence assay against a commercially available substrate consisting of a cephalosporin core linking 7-hydroxycoumarin to fluorescein (CCF2-FA). […] In a 384-well microplate, the test inhibitor was incubated with the metallo-β-lactamase enzyme and the substrate for 2 hours at 25° C. […] The IC50 value was determined from semi-logarithmic plots of enzyme inhibition versus inhibitor concentration, with a curve generated using a 4-parameter fit.

NDM-1 = NDM-1 (Klebsiella pneumoniae, UniProt C7C422); assay type: biochemical; conditions: CCF2-FA substrate, 2 hours at 25° C.
Protocol: as §1, §2

VIM-1 = VIM-1 (Pseudomonas aeruginosa (strain ATCC 15692 / DSM 22644 / CIP 104116 / JCM 14847 / LMG 12228 / 1C / PRS 101 / PAO1), UniProt A0A0F7KYQ8); assay type: biochemical; conditions: CCF2-FA substrate, 2 hours at 25° C.
Protocol: as §1, §2

[1] = test system: Escherichia coli expressing NDM-1 (CLB30005, CLB30016); assay type: cell-based; conditions: with imipenem 1 μg/ml; 95% inhibition of bacterial growth
In short: (§3)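 Clinical strains were grown overnight at 35 °C on blood agar, adjusted to set OD600 in saline and diluted 1:100 into 1.1× CAMHB. Inhibitor was tested with and without imipenem at 1 μg/ml. After 22–24 h at 35 °C, absorbance was read to give synergistic concentration.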

[2] = test system: Klebsiella pneumoniae expressing VIM-1 (IHMA599644); assay type: cell-based; conditions: with imipenem 1 μg/ml; 95% inhibition of bacterial growth
In short: as §3

[3] = test system: Serratia marcescens expressing IMP-1 (CL5741); assay type: cell-based; conditions: with imipenem 1 μg/ml; 95% inhibition of bacterial growth
In short: as §3

[4] = test system: Pseudomonas aeruginosa PAO1 MB9798 (efflux+, IMP-1); conditions: for Efflux ratio: ratio MITC95 PA 9798/MITC95 PA 9799; for P. aeruginosa expressing IMP-1, efflux + (MB9798) MITC95: restores susceptibility to imipenem at 2 μg/mL in the presence of a class A
In short: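 Isogenic PAO1 pair (efflux+ MB9798, efflux− MB9799, both IMP-1) tested by microbroth MIC with fixed imipenem and/or ceftazidime, usually at CLSI breakpoint, plus fixed class A/C inhibitor against AmpC. MBL inhibitor titrated; concentration restoring susceptibility recorded and fold difference between strains taken as efflux extent.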

[5] = test system: Pseudomonas aeruginosa PAO1 MB9799 (efflux-, IMP-1); assay type: cell-based; conditions: C, D serine β-lactamase inhibitor closely related to relebactam; for P. aeruginosa expressing IMP-1, efflux − (MB9799) MITC95: restores susceptibility to imipenem at 2 μg/mL in the presence of a class A, efflux − strain MB9799
Text: The strain background was Pseudomonas aeruginosa PAO1.
The strain set was then used as a pair to determine the effect of metallo-β-lactamase inhibitors of Formula I on the MIC of imipenem and/or ceftazidime. A fixed concentration of antibiotic was included in standard microbroth MIC tests, usually at the CLSI (Clinical and Laboratory Standards Institute) breakpoint concentration. A fixed amount of a class A/C beta-lactamase inhibitor was also included to inhibit the resident Pseudomonas AmpC enzyme. A serial titration of the metallo-β-lactamase inhibitor was included and the concentration of metallo-β-lactamase inhibitor which restores susceptibility of the strain to the included antibiotic was recorded. That concentration of metallo-β-lactamase inhibitor was then compared between the two strains to determine the fold difference between the efflux + (MB9798) and efflux − (MB9799) strains. This was taken as an indication of the extent to which the MBLi is subject to efflux.

[6] = test system: Pseudomonas aeruginosa MB 5919; experiment: Minimum inhibitory concentrations of sentinel antibiotics (strain quality control); assay type: cell-based; conditions: OprD+, efflux+, parental strain
[7] = test system: Pseudomonas aeruginosa MB 5890; experiment: as above; assay type: cell-based; conditions: OprD+, efflux−, parental strain
[8] = test system: MB 5919 Trans IMP1 plasmid (MB 9798); assay type: cell-based, Pseudomonas aeruginosa; conditions: OprD+, efflux+
[9] = test system: MB 5890 Trans IMP1 plasmid (MB 9799); assay type: cell-based, Pseudomonas aeruginosa; conditions: OprD+, efflux−
[10] = test system: MB 5890 Trans pFlp-Vim2 plasmid; assay type: cell-based, Pseudomonas aeruginosa; conditions: OprD+, efflux−
[11] = test system: MB 5919 Trans pFlp-Vim1 plasmid (MB 9861); assay type: cell-based, Pseudomonas aeruginosa; conditions: OprD+, efflux+
[12] = test system: MB 5890 Trans pFlp-Vim1 (MB9862); assay type: cell-based, Pseudomonas aeruginosa; conditions: OprD+, efflux−
[13] = test system: MB 5919 Trans pFlp-Vim2 plasmid; assay type: cell-based, Pseudomonas aeruginosa; conditions: OprD+, efflux+
[14] = C, D serine β-lactamase inhibitor closely related to relebactam, efflux + strain MB9798

IMP-1, sequence (P52699 whole entry, looked up, species assumed): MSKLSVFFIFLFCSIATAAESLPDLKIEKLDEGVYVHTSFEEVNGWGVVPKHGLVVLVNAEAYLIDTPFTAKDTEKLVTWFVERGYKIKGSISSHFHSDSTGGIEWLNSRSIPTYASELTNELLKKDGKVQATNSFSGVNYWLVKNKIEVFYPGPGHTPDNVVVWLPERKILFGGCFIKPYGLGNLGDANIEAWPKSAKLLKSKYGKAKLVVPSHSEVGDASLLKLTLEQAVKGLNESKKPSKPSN
NDM-1, sequence (C7C422 whole entry, looked up, species assumed): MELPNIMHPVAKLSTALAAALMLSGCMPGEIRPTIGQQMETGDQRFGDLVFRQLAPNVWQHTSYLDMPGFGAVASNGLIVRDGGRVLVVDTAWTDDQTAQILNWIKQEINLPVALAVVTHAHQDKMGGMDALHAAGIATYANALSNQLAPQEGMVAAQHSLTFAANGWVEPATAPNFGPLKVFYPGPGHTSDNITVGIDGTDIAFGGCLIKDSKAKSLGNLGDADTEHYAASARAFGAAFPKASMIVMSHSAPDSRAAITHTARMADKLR

Compound: (R)-4-(1-(2-aminoethyl)-1H-benzo[d][1,2,3]triazol-4-yl)-N1-(pyrrolidin-3-yl)-3-(2H-tetrazol-5-yl)benzene-1,2-disulfonamide yl)benzene-1,2-disulfonamide [Example 289]
- IC50 (IMP-1): 1.22 nM
- IC50 (NDM-1): 0.249 nM
- IC50 (VIM-1): 0.104 nM
- Escherichia coli (NDM-1) MITC95 [1]: 0.7813 µM
- Klebsiella pneumoniae (VIM-1) MITC95 [2]: 1.563 µM
- Serratia marcescens (IMP-1) MITC95 [3]: 1.563 µM
- Efflux ratio ([4]; imipenem at 2 μg/mL): 2.00
- P. aeruginosa expressing IMP-1, efflux + (MB9798) MITC95 [4, 14]: 1.563 µM
- P. aeruginosa expressing IMP-1, efflux − (MB9799) MITC95 [5]: 0.7813 µM

Compound: CCN1CCN(C(=O)N[C@@H](C(=O)N[C@@H]2C(=O)N3[C@@H]2SC(C)(C)[C@@H]3C(=O)O)c2ccccc2)C(=O)C1=O [Pipercillin, piperacillin]
- MIC [6]: 2 mg/L (≈ 3.86 µM)
- MIC [7]: 1 mg/L (≈ 1.93 µM)
- MIC [8]: 4 mg/L (≈ 7.73 µM)
- MIC [9]: 4 mg/L (≈ 7.73 µM)

Compound: CC(C)(O/N=C(\C(=O)N[C@@H]1C(=O)N2C(C(=O)[O-])=C(C[n+]3ccccc3)CS[C@H]12)c1csc(N)n1)C(=O)O [CAZ, ceftazidime]
- MIC [6]: 1 mg/L (≈ 1.83 µM)
- MIC [7]: 0.5 mg/L (≈ 0.915 µM)
- MIC [10]: 64 mg/L (≈ 117 µM)

Compound: C[C@@H](O)[C@H]1C(=O)N2C(C(=O)O)=C(S[C@@H]3CN[C@H](C(=O)N(C)C)C3)[C@H](C)[C@H]12 [Meropenem, meropenem]
- MIC [6]: 2 mg/L (≈ 5.22 µM)
- MIC [7]: 0.5 mg/L (≈ 1.3 µM)
- MIC [8]: >64 mg/L
- MIC [9]: 64 mg/L (≈ 167 µM)
- MIC [11]: >64 mg/L
- MIC [12]: 64 mg/L (≈ 167 µM)
- MIC [13]: >64 mg/L
- MIC [10]: 32 mg/L (≈ 83.4 µM)

Compound: C[N+]1(CCN)CC[C@@H](NS(=O)(=O)c2ccc(-c3cccc4[nH]c(N)nc34)c(-c3nn[nH]n3)c2S(N)(=O)=O)C1 (stereo partly drawn) [Example 248, (3R)-3-{[4-(2-amino-1H-1,3-benzodiazol-4-yl)-2-sulfamoyl-3-(2H-1,2,3,4-tetrazol-5-yl)benzene]sulfonamido}-1-(2-aminoethyl)-1-methylpyrrolidin-1-ium; methaneperoxoate]
- Klebsiella pneumoniae (VIM-1) MITC95 [2]: 0.7813 µM
- P. aeruginosa expressing IMP-1, efflux + (MB9798) MITC95 [4, 14]: 0.7813 µM
- P. aeruginosa expressing IMP-1, efflux − (MB9799) MITC95 [5]: 0.7813 µM

Compound: Cc1ccc(-c2ccc(S(=O)(=O)NCCN)c(S(N)(=O)=O)c2-c2nn[nH]n2)c2nc(N)[nH]c12 [Example 329, 4-(2-Amino-7-methyl-1H-benzo[d]imidazol-4-yl)-N1-(2-aminoethyl)-3-(2H-tetrazol-5-yl)benzene-1,2-disulfonamide]
- Escherichia coli (NDM-1) MITC95 [1]: 1.563 µM
- Klebsiella pneumoniae (VIM-1) MITC95 [2]: 1.563 µM
- Serratia marcescens (IMP-1) MITC95 [3]: 1.563 µM
- Efflux ratio ([4]; imipenem at 2 μg/mL): 2.00

Compound: NCc1nc2c(-c3ccc(S(=O)(=O)N[C@@H](CN)CO)c(S(N)(=O)=O)c3-c3nn[nH]n3)cccc2[nH]1 [Example 379, (S)—N^1-(1-amino-3-hydroxypropan-2-yl)-4-(2-(aminomethyl)-1H-benzo[d]imidazol-4-yl)-3-(2H-tetrazol-5-yl)benzene-1,2-disulfonamide]
- Escherichia coli (NDM-1) MITC95 [1]: 1.563 µM
- Klebsiella pneumoniae (VIM-1) MITC95 [2]: 1.563 µM
- Serratia marcescens (IMP-1) MITC95 [3]: 1.563 µM
- Efflux ratio ([4]; imipenem at 2 μg/mL): 2.00

Compound: NC[C@H](CO)NS(=O)(=O)c1ccc(-c2ccnc(N)c2)c(-c2nn[nH]n2)c1S(N)(=O)=O [Example 362, (R)—N1-(1-amino-3-hydroxypropan-2-yl)-4-(2-aminopyridin-4-yl)-3-(2H-tetrazol-5-yl)benzene-1,2-disulfonamide]
- Escherichia coli (NDM-1) MITC95 [1]: 1.563 µM
- Klebsiella pneumoniae (VIM-1) MITC95 [2]: 3.125 µM
- Serratia marcescens (IMP-1) MITC95 [3]: 1.563 µM
- Efflux ratio ([4]; imipenem at 2 μg/mL): 2.00

Compound: NCCNS(=O)(=O)c1ccc(-c2cccc(NC[C@@H](O)CN)c2)c(-c2nn[nH]n2)c1S(N)(=O)=O [Example 352, (S)-3′-((3-amino-2-hydroxypropyl)amino)-N4-(2-aminoethyl)-2-(2H-tetrazol-5-yl)-[1,1′-biphenyl]-3,4-disulfonamide]
- Escherichia coli (NDM-1) MITC95 [1]: 0.7813 µM
- Klebsiella pneumoniae (VIM-1) MITC95 [2]: 1.563 µM
- Serratia marcescens (IMP-1) MITC95 [3]: 1.563 µM
- Efflux ratio ([4]; imipenem at 2 μg/mL): 2.00

Compound: Nc1nc2c(-c3ccc(S(=O)(=O)N4CCN(CCO)CC4)c(S(N)(=O)=O)c3-c3nnn[nH]3)cccc2s1.O=C(O)C(F)(F)F [Example 92, 4-((4-(2-aminobenzo[d]thiazol-4-yl)-2-sulfamoyl-3-(1H-tetrazol-5-yl)phenyl)sulfonyl)-1-(2-hydroxyethyl) piperazin-1-ium 2,2,2-trifluoroacetate]
- IC50 (IMP-1; fluorescence assay): 1.17 nM
- IC50 (NDM-1; fluorescence assay): 0.609 nM
- IC50 (VIM-1; fluorescence assay): 1.41 nM
- Escherichia coli expressing NDM-1 (CLB30016) MITC95 [1]: 12.5 µM
- Efflux ratio ([4]; imipenem at 2 μg/mL): 4.00
- P. aeruginosa expressing IMP-1, efflux + (MB9798) MITC95 [4, 14]: 25 µM
- P. aeruginosa expressing IMP-1, efflux − (MB9799) MITC95 [5]: 6.25 µM

Compound: NC[C@H](O)CNS(=O)(=O)c1ccc(-c2ccnc(N)c2)c(-c2nn[nH]n2)c1S(N)(=O)=O [Example 417, (S)-N^1-(3-amino-2-hydroxypropyl)-4-(2-aminopyridin-4-yl)-3-(2H-tetrazol-5-yl)benzene-1,2-disulfonamide]
- IC50 (IMP-1): 1.28 nM
- IC50 (NDM-1): 0.385 nM
- Concentration of metallo-β-lactamase inhibitor which restores susceptibility of efflux + (MB9798) strain to imipenem ([4]; imipenem at 2 μg/mL, in the presence of a class A, C, D serine β-lactamase inhibitor closely related to relebactam, efflux + strain MB9798): 1.563
- Concentration of metallo-β-lactamase inhibitor which restores susceptibility of efflux − (MB9799) strain to imipenem ([5]; imipenem at 2 μg/mL, in the presence of a class A): 0.7813

Compound: C[C@@H](O)[C@H]1C(=O)N2C(C(=O)O)=C(SCCN=CN)C[C@H]12 [Imipenem, imipenem]
- MIC [6]: 4 mg/L (≈ 13.4 µM)
- MIC [7]: 2 mg/L (≈ 6.68 µM)
- MIC [8]: 64 mg/L (≈ 214 µM)
- MIC [9]: 32 mg/L (≈ 107 µM)
- MIC [11]: >64 mg/L
- MIC [12]: 64 mg/L (≈ 214 µM)
- MIC [13]: >64 mg/L
- MIC [10]: 32 mg/L (≈ 107 µM)
